Results as given in patent US12305226B2, “Barcoded protein array for multiplex single-molecule interaction profiling” (President and Fellows of Harvard College, priority 2014, dated 2025).

Biological target: ADRB2 (Homo sapiens, UniProt P07550)
Details: 100 μM compound, 5 nM barcoded β-arr2, GRK2
Experimental: A compound library could be screened in multi-well plates, and in each well, one compound was assayed with many barcoded GPCRs and a β-arrestin-2 (β-arr2) protein bearing a well-position-associated barcode (FIG. 3C). All the samples were pooled and deposited on one slide, and the interaction of a GPCR with a compound was detected by the increased GPCR polony co-localization with the corresponding β-arr2 polonies. […] The co-localization ratios were measured at 50 imaging positions on the array for statistical analysis.
A GPCR-β-arr2 binding assay was performed by mixing a ligand with ˜1 nM GPCR-nanodisc complexes in an assay buffer A2 (20 mM HEPES, pH 7.5, 50 mM KOAc, 2 mM EDTA and 5 mM MgCl2), followed by addition of 10 nM GRK2 (Life Technologies), 0.1 mM ATP, 10 nM G protein β1γ2 subunits (KeraFAST) and 5 nM barcoded β-arr2 in a total volume of 25 μL. Compounds were assayed in parallel using a multi-well plate, and the reactions were incubated at 30° C. for 30 min. Similarly as described above, GPCR-β-arr2 complexes were crosslinked and both crosslinked and free GPCRs were purified from the reactions with the anti-HA magnetic beads. Proteins were pooled and analyzed on a single array.

Chain of ADRB2 (P07550 whole entry): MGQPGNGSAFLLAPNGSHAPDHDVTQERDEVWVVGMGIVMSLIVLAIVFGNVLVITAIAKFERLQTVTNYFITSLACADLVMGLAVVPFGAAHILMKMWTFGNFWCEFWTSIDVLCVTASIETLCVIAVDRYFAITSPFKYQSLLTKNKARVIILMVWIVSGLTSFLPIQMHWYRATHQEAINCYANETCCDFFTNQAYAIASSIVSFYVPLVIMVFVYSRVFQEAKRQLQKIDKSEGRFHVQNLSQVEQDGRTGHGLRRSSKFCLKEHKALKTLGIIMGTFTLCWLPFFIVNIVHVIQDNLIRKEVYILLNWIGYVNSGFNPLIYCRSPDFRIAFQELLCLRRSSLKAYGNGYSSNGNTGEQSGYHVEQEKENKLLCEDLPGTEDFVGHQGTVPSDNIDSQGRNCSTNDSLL

CC(C)NCC(O)COc1cccc2[nH]ccc12 (stereo not shown) [pindolol]
agonist type identified by polony co-localization ratios: partial
